Data as given in US5066783A, “Antiviral peptides and means for treating herpes infections” (priority 1988, dated 1991).
Where a SMILES comes first, the peptide text is derived from it. Bridges are numbered along the chain shown (N, C = ends). [ ]: non-standard residue; d: D form. The star is where a group is joined. Ileψ(thiazoline)Cys = CC[C@H](C)[C@H](N)C1=N[C@H](C(=O)*)CS1; dOrn = NCCC[C@@H](N)C(=O)O

Tests used:
[1] = system: HSV-1 strain MP-12; experiment: Guinea pig cutaneous herpes infection model, HSV-1; format: in vivo; conditions: for skin lesion score: HSV-1 group, mean score
[2] = system: HSV-2 strain HG-52; experiment: Guinea pig cutaneous herpes infection model, HSV-2; format: in vivo; conditions: for skin lesion score: HSV-2 group, mean score
[3] = target: ribonucleotide reductase from HSV-1 (strain F)-infected BHK-21/C13 cells (Human herpesvirus 1, UniProt P08543); experiment: HSV-1 ribonucleotide reductase (CDP reductase) inhibition; conditions: for % CDP REDUCTASE ACTIVITY: 75 μg protein extract
Sequence of ribonucleotide reductase from HSV-1 (strain F)-infected BHK-21/C13 cells (P08543 whole entry): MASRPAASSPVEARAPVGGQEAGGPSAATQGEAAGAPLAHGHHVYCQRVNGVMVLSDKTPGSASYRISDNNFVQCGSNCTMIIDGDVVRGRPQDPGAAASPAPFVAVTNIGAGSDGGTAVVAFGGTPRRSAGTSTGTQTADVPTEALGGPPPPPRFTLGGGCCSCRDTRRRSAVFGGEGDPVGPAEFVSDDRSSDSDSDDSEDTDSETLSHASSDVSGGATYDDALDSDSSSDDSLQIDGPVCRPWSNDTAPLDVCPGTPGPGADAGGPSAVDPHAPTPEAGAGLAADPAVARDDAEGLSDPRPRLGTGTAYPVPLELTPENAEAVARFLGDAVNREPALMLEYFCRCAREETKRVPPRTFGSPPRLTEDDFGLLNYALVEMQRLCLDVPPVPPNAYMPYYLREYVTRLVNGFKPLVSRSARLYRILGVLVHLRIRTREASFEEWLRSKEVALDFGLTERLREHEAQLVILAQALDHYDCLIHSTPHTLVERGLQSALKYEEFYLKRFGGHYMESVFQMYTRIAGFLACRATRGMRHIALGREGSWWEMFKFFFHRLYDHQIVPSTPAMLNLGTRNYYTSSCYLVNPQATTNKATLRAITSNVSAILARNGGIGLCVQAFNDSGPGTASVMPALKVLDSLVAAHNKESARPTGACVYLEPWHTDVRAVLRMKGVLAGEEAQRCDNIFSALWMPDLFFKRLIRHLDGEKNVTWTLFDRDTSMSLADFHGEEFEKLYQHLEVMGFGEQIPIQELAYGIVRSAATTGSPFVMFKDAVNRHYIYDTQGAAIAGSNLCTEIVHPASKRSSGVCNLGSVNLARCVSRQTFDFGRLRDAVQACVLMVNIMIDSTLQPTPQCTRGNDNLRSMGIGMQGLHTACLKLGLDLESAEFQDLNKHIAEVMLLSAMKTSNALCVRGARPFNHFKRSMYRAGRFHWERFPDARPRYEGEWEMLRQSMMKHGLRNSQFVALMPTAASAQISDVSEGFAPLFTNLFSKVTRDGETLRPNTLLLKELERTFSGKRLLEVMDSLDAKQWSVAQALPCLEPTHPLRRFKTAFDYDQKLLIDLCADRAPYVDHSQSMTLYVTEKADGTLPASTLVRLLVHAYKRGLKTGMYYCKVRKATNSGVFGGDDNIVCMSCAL

[4] = system: cellular ribonucleotide reductase from BHK21/C13 cells; conditions: up to 1 mM; data not shown
[5] = target: HSV-2 ribonucleotide reductase (Human herpesvirus 2, UniProt P89462); experiment: HSV-2 ribonucleotide reductase inhibition; format: biochemical; conditions: data not shown
Sequence of HSV-2 ribonucleotide reductase (P89462 whole entry): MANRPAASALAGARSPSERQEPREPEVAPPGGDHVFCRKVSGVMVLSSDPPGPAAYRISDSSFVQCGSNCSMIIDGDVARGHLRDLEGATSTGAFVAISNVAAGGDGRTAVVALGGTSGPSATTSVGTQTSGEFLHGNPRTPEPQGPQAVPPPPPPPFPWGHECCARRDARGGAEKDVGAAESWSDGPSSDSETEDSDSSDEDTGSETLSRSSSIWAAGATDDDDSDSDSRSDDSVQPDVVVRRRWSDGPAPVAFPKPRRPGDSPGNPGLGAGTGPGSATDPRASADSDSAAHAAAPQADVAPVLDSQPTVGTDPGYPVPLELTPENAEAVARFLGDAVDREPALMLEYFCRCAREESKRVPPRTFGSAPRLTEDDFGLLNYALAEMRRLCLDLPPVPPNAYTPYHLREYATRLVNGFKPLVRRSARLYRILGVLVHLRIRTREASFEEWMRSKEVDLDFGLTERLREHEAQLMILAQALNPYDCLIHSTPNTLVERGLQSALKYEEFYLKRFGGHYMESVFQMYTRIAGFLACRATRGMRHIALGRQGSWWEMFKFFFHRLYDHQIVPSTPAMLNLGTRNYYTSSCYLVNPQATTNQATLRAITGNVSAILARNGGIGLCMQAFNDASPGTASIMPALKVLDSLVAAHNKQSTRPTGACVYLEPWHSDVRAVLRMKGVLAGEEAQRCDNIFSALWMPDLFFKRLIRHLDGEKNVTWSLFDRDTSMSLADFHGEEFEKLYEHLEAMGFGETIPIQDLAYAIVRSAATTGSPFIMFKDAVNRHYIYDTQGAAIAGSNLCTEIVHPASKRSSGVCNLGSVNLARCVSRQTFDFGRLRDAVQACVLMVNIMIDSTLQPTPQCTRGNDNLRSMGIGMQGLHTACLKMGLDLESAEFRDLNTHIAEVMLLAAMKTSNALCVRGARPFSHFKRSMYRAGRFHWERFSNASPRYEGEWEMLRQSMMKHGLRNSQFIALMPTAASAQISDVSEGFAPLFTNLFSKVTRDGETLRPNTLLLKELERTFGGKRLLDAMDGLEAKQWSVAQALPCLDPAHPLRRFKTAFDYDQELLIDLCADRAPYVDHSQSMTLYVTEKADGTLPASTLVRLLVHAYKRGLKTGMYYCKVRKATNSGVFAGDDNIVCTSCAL
Excerpt: The precipitate was removed by centrifugation.

[6] = system: HSV-1 ribonucleotide reductase; experiment: Neutralization of HSV-1 ribonucleotide reductase by anti-nonapeptide IgG, preadsorbed with nonapeptide; conditions: FIG. 2
[7] = system: cellular ribonucleotide reductase from 96-V-2(600) cells; conditions: up to 1 mM; FIG. 1
[8] = system: HSV-2; experiment: HSV-2 replication (virus yield) in serum-starved BHK 21/C13 cells; format: cell-based; conditions: 1 mM
[9] = system: HSV-1; conditions: A. Alarcon et al., Antiviral Research, 4, 231 (1984); cited from earlier work
[10] = target: T1, herpes simplex viral ribonucleotide reductase (Human herpesvirus 1, UniProt P08543); experiment: biochemical; format: biochemical, herpes simplex virus; conditions: 75 μg enzyme preparation (21.6 units mg^-1); mean of four assays
T1 construct: endogenous in cells
T1 sequence (P08543 whole entry): as the sequence (P08543 whole entry) above

[11] = 4 hours post infection, A (after absorption)
[12] = 4 hours post infection, B (before absorption)
[13] = 12 hours post infection, A (after absorption)
[14] = 12 hours post infection, B (before absorption)
[15] = 24 hours post infection, A (after absorption)
[16] = 24 hours post infection, B (before absorption)
[17] = 36 hours post infection, A (after absorption)
[18] = 36 hours post infection, B (before absorption)

Work on `Nc1nc2c(ncn2COCCO)c(=O)[nH]1` [Acyclovir, acyclovir] yielded a skin lesion score ([1]; day 1, topical twice daily) of 0.50, a skin lesion score ([1]; day 2, topical twice daily) of 0.50 and a skin lesion score ([1]; day 3, topical twice daily) of 0.28. The skin lesion score ([1]; day 4, topical twice daily) was 0.20, the skin lesion score ([1]; day 5, topical twice daily) was 0.20 and the skin lesion score ([1]; day 6, topical twice daily) was 0.20. The skin lesion score ([1]; day 7, topical twice daily) was 0.15, the skin lesion score ([1]; day 8, topical twice daily) was 0.00 and the skin lesion score ([1]; day 9, topical twice daily) was 0.00. The skin lesion score ([1]; day 10, topical twice daily) was 0.00, the skin lesion score ([1]; day 11, topical twice daily) was 0.00 and the skin lesion score ([2]; day 1, topical twice daily) was 0.50. It also gave a skin lesion score ([2]; day 2, topical twice daily) of 0.50, a skin lesion score ([2]; day 3, topical twice daily) of 0.63 and a skin lesion score ([2]; day 4, topical twice daily) of 0.67. The skin lesion score ([2]; day 5, topical twice daily) was 1.23, the skin lesion score ([2]; day 6, topical twice daily) was 0.57 and the skin lesion score ([2]; day 7, topical twice daily) was 0.40. The skin lesion score ([2]; day 8, topical twice daily) was 0.13, the skin lesion score ([2]; day 9, topical twice daily) was 0.13 and the skin lesion score ([2]; day 10, topical twice daily) was 0.00. For the same molecule, the skin lesion score ([2]; day 11, topical twice daily) was 0.00.

In the case of H-YTMLVVDDL-OH [EBV 7-15], the “% CDP REDUCTASE ACTIVITY” value ([3]; 10 μM peptide) is reported as 100%, the “% CDP REDUCTASE ACTIVITY” value ([3]; 25 μM peptide) is reported as 100% and the “% CDP REDUCTASE ACTIVITY” value ([3]; 50 μM peptide) is reported as 100%. For the same molecule, the “% CDP REDUCTASE ACTIVITY” value ([3]; 100 μM peptide) was 70% and the “% CDP REDUCTASE ACTIVITY” value ([3]; 400 μM peptide) was 10%.

With `CC(C)C[C@H](NC(=O)[C@H](CC(=O)O)NC(=O)[C@H](CC(N)=O)NC(=O)[C@@H](NC(=O)[C@@H](NC(=O)[C@H](C)NC(=O)CNC(=O)[C@H](C)NC(=O)[C@@H](N)Cc1ccc(O)cc1)C(C)C)C(C)C)C(=O)O` [HSV 7-15, L-tyrosyl-L-alanyl-glycyl-L-alanyl-L-valyl-L-valyl-L-asparagyl-L-aspartyl- L-leucine] the “sensitivity of cellular enzyme to the peptide” value [4] was “completely insensitive”, the “shortening the healing time and diminishing the symptoms of HSV-1 infection” value ([1]; summary of TABLE III) was “effective” and the “inhibition curve for the HSV-2 enzyme compared with HSV-1” value [5] was “nearly identical”. For the same molecule, the “nonapeptide concentration at which equivalence was reached (IgG neutralizing capacity eliminated)” value [6] was 10 µM, the “sensitivity of cellular enzyme to the peptide” value [7] was “completely insensitive” and the “shortening healing time and alleviating the symptoms of HSV-2” value ([2]; summary of TABLE IV) was “effective”. The “% CDP REDUCTASE ACTIVITY” value ([3]; 10 μM peptide) was 96%, the “% CDP REDUCTASE ACTIVITY” value ([3]; 25 μM peptide) was 94% and the “% CDP REDUCTASE ACTIVITY” value ([3]; 50 μM peptide) was 80%. The “% CDP REDUCTASE ACTIVITY” value ([3]; 100 μM peptide) was 45%, the “% CDP REDUCTASE ACTIVITY” value ([3]; 400 μM peptide) was 9% and the “concentration giving total inhibition” value ([3]; FIG. 1, 50 μg viral enzyme) was 400 µM. It also gave a virus titer [8, 11] of 0.001 PFU/cell, a virus titer [8, 12] of 0.0006 PFU/cell and a virus titer [8, 13] of 0.01 PFU/cell. For the same molecule, the virus titer [8, 14] was 0.006 PFU/cell, the virus titer [8, 15] was 0.5 PFU/cell and the virus titer [8, 16] was 0.4 PFU/cell. For the same molecule, the virus titer [8, 17] was 1.1 PFU/cell and the virus titer [8, 18] was 0.8 PFU/cell.

For `CC[C@H](C)[C@H](N)C1=N[C@H](C(=O)N[C@@H](CC(C)C)C(=O)N[C@H](CCC(=O)O)C(=O)N[C@H](C(=O)N[C@H]2CCCCNC(=O)[C@H](CC(N)=O)NC(=O)[C@@H](CC(=O)O)NC(=O)[C@H](Cc3cnc[nH]3)NC(=O)[C@@H](Cc3ccccc3)NC(=O)[C@H]([C@@H](C)CC)NC(=O)[C@@H](CCCN)NC2=O)[C@@H](C)CC)CS1` [Bacitracin, bacitracin, reference compound] ({Ileψ(thiazoline)Cys}-L[dE]IK[dOrn]I[dF]H[dD]N; lactam 4-C), the virus titer [8, 11] was 0.0005 PFU/cell, the virus titer [8, 12] was 0.0007 PFU/cell and the virus titer [8, 13] was 0.007 PFU/cell. It also gave a virus titer [8, 14] of 0.005 PFU/cell, a virus titer [8, 15] of 0.06 PFU/cell and a virus titer [8, 16] of 0.06 PFU/cell. For the same molecule, the virus titer [8, 17] was 0.06 PFU/cell, the virus titer [8, 18] was 0.03 PFU/cell and the “activity against HSV-1 when used alone” value [9] was “inactive”.

In the case of H-STSYAGAVVNDL-OH [HSV 4-15], the “% CDP REDUCTASE ACTIVITY” value ([3]; 10 μM peptide) is reported as 87%, the “% CDP REDUCTASE ACTIVITY” value ([3]; 25 μM peptide) is reported as 71% and the “% CDP REDUCTASE ACTIVITY” value ([3]; 50 μM peptide) is reported as 47%. For the same molecule, the “% CDP REDUCTASE ACTIVITY” value ([3]; 100 μM peptide) was 18% and the “% CDP REDUCTASE ACTIVITY” value ([3]; 400 μM peptide) was 11%.

Work on “H-HAGAVVNDL-OH [H--His--Ala--Gly--Ala--Val--Val--Asn--Asp--Leu--OH]” yielded an IC50 [10] of 400 µM.
